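Cultured in 96-well plates, cells were exposed to test compound for 48 hours across five concentrations. TGI: concentration producing complete growth inhibition.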
Assays:
Experiment in all cases: NCI tumour cell line growth inhibition, 48 h
[1] = tested on: SNB-75 CNS
[2] = tested on: SK-OV-3 ovarian
[3] = tested on: SF-268 CNS
[4] = tested on: MOLT-4 leukemia
[5] = tested on: SK-MEL-2 melanoma
[6] = tested on: OVCAR-8 ovarian
[7] = tested on: LOX IMVI melanoma
[8] = tested on: OVCAR-4 ovarian
[9] = tested on: HCT-116 colon
[10] = tested on: RPMI-8226 leukemia
[11] = tested on: KM12 colon
[12] = tested on: A549 NSCLC
[13] = tested on: M14 melanoma
[14] = tested on: RXF 393 renal
[15] = tested on: SR leukemia
[16] = tested on: SNB-19 CNS
[17] = tested on: DLD-1 colon
[18] = tested on: SF-295 CNS
[19] = tested on: HL-60(TB) leukemia
[20] = tested on: DMS 273 small cell lung
[21] = tested on: KM20L2 colon
[22] = tested on: HCC-2998 colon
[23] = tested on: M19-MEL melanoma
[24] = tested on: SW-620 colon
[25] = tested on: EKVX NSCLC
[26] = tested on: 786-0 renal
[27] = tested on: COLO 205 colon
[28] = tested on: HOP-92 NSCLC
[29] = tested on: XF 498 CNS
[30] = tested on: SK-MEL-5 melanoma
[31] = tested on: OVCAR-5 ovarian
[32] = tested on: UACC-257 melanoma
[33] = tested on: NCI-H23 lung
[34] = tested on: DMS 114 small cell lung
[35] = tested on: SN12C renal
[36] = tested on: OVCAR-3 ovarian
[37] = tested on: HCT-15 colon
[38] = tested on: A498 renal
[39] = tested on: MALME-3M melanoma
[40] = tested on: HOP-18 NSCLC
[41] = tested on: SNB-78 CNS
[42] = tested on: SF-539 CNS
[43] = tested on: CCRF-CEM leukemia
[44] = tested on: K-562 leukemia
[45] = tested on: NCI-H460 lung
[46] = tested on: ACHN renal
[47] = tested on: U251 CNS
[48] = tested on: IGROV1 ovarian
[49] = tested on: UO-31 renal
[50] = tested on: TK-10 renal
[51] = tested on: UACC-62 melanoma
[52] = tested on: LXFL 529 NSCLC
[53] = tested on: HT29 colon
[54] = tested on: HOP-62 NSCLC
[55] = tested on: SK-MEL-28 melanoma
[56] = tested on: CAKI-1 renal
[57] = tested on: NCI-H226 lung
[58] = tested on: NCI-H522 lung

Measured: TGI

N#CC1C2CCC3(CC2CCN1C(=O)c1ccccc1)OCCO3 (stereo not drawn)
> 100 µM: [1] | [2] | [3] | [4] | [6] | [7] | [8] | [9] | [10] | [11] | [12] | [13] | [14] | [15] | [16] | [17] | [18] | [19] | [20] | [21] | [22] | [23] | [24] | [25] | [26] | [27] | [28] | [29] | [30] | [31] | [32] | [33] | [34] | [35] | [36] | [37] | [38] | [39] | [40] | [41] | [42] | [43] | [44] | [45] | [46] | [47] | [48] | [49] | [50] | [51] | [52] | [53] | [54] | [55]
61.9 µM: [5]

Cc1cccc(C)c1NC(=O)CCc1n[nH]c(=S)o1
36.2 µM: [24]
85.1 µM: [27]
36.7 µM: [9]
> 100 µM: [1] | [2] | [3] | [4] | [56] | [6] | [8] | [11] | [12] | [13] | [16] | [17] | [18] | [19] | [20] | [21] | [22] | [23] | [57] | [25] | [26] | [28] | [30] | [58] | [31] | [32] | [33] | [34] | [35] | [36] | [37] | [38] | [39] | [40] | [41] | [42] | [43] | [44] | [45] | [46] | [47] | [48] | [49] | [50] | [51] | [52] | [53] | [54] | [55]
56.7 µM: [10]

— PubChem BioAssay (NCI)
